Experimental findings from ChEMBL document CHEMBL5465560, “Selectivity Literature for EUbOPEN Chemogenomic Library” (2024) are described below.

For assay [1], the target named is Serine/threonine-protein kinase PAK 2 (Homo sapiens) (UniProt Q13177). The assay is described as follows: Selectivity interaction (KinomeScan (DiscoverX)) EUB0000092b PAK2. The note with it: at 10 µM.
Assay [2] concerns the target Serine/threonine-protein kinase N1 (Homo sapiens, UniProt Q16512). Nature of the assay: Selectivity interaction (KinomeScan (DiscoverX)) EUB0000092b PKN1. As to conditions: at 10 µM.
Assay [3] concerns the target Death-associated protein kinase 3 (Homo sapiens) (UniProt O43293). The assay is described as follows: Selectivity interaction (KinomeScan (DiscoverX)) EUB0000655a DAPK3. As to conditions: at 10 µM.
For assay [4], the target named is TGF-beta receptor type-2 (Homo sapiens) (UniProt P37173). The assay is described as follows: Selectivity interaction (KinomeScan (DiscoverX)) EUB0000695a TGFBR2. The note with it: at 100 nM.
The target of assay [5] is PAS domain-containing serine/threonine-protein kinase (Homo sapiens) (UniProt Q96RG2). Nature of the assay: Selectivity interaction (Kinase screening (Nanosyn)) EUB0000604a PASK.
The target in assay [6] is T1, Serine/threonine-protein kinase Nek5 (Homo sapiens) (UniProt Q6P3R8).
T1 sequence (whole entry): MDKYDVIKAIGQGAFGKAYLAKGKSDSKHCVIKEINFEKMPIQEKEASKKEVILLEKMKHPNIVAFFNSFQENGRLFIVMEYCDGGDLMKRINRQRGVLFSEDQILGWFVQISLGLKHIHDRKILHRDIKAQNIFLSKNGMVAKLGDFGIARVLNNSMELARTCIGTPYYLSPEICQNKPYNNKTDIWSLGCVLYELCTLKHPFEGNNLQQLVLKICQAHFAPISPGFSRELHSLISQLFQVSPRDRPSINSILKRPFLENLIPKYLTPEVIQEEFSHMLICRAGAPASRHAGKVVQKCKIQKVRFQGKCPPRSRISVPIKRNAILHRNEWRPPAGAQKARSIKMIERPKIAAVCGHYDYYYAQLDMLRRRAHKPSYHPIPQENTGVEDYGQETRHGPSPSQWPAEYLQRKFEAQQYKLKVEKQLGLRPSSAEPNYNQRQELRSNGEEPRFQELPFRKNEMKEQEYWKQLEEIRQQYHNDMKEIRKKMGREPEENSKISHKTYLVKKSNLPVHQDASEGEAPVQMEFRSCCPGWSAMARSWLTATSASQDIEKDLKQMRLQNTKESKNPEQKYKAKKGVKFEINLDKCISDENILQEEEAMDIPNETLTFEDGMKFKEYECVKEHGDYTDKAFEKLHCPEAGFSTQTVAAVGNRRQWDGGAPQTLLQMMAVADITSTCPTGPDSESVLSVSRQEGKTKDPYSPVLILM
The assay is described as follows: Selectivity interaction (KinomeScan (DiscoverX)) EUB0000666a NEK5. The note with it: at 10 µM.

Assay [7] deals with Mitogen-activated protein kinase 14 (Homo sapiens, UniProt Q16539). The assay is described as follows: Selectivity interaction (Kinase panel (Z-LYTE Assay)) EUB0001632a MAPK14. As to conditions: at 10 µM.
Assay [8] addresses T2, Mitogen-activated protein kinase kinase kinase 5 (Homo sapiens) (UniProt Q99683).
T2 sequence (whole entry): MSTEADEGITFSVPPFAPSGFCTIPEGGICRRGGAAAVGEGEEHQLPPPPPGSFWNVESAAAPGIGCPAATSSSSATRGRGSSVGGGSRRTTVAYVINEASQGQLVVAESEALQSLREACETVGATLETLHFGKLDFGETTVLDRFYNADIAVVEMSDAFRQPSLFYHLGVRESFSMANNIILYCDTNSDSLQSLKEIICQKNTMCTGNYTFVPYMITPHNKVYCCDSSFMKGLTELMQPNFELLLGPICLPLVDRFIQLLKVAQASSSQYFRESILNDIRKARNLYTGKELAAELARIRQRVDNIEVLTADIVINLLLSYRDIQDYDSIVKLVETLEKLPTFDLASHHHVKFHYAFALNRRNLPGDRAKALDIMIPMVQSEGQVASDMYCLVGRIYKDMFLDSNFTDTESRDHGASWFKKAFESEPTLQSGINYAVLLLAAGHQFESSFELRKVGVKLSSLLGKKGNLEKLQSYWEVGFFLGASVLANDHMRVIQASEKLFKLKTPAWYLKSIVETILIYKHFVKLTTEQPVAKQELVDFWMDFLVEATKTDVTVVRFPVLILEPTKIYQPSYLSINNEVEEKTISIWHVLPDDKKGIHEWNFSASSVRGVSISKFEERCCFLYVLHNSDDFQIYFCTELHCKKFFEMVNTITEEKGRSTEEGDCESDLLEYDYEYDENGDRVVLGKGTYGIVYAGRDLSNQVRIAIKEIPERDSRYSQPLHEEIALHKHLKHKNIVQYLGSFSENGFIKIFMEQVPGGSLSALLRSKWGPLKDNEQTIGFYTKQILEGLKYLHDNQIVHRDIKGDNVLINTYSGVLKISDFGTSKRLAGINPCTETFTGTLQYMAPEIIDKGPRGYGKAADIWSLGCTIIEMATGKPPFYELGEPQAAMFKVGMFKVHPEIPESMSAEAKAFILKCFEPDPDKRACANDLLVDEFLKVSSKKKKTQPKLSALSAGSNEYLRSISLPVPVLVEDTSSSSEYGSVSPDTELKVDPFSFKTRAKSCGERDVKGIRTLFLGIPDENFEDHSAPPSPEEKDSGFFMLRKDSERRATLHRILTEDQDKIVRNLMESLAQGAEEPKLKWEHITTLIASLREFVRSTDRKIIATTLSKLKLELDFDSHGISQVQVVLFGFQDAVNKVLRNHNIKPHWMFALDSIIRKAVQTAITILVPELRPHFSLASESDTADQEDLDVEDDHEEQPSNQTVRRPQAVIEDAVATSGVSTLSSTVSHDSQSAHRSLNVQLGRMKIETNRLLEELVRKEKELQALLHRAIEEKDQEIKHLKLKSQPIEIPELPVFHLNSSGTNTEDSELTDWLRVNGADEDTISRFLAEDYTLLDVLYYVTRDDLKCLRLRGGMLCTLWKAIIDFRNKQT
The assay is described as follows: Selectivity interaction (KinomeScan (DiscoverX)) EUB0000607a MAP3K5. As to conditions: at 10 µM.

Assay [9] deals with Fibroblast growth factor receptor 3 (Homo sapiens), P22607 [K650E]. The assay is described as follows: (§1) Selectivity interaction (SelectScreen profiling (Invitrogen)) EUB0000607a FGFR3. As to conditions: at 2 µM.
Assay [10] concerns the target Fibroblast growth factor receptor 3 (Homo sapiens, UniProt P22607). The description is as §1. The note with it: at 2 µM.
In assay [11] the target is Tyrosine-protein kinase JAK1 (Homo sapiens, UniProt P23458).
For assay [12], the target named is Protein kinase C delta type (Homo sapiens) (UniProt Q05655). The assay is described as follows: Selectivity interaction (KinomeScan (DiscoverX)) EUB0001619a PRKCD. The note with it: at 1 µM.
The target in assay [13] is Serine/threonine-protein kinase Nek6 (Homo sapiens) (UniProt Q9HC98). Nature of the assay: Selectivity interaction (Kinase panel (literature)) EUB0001199aCl NEK6. As to conditions: at 1 µM.
In assay [14] the target is Cyclin-dependent kinase 7 (Homo sapiens, UniProt P50613). The assay is described as follows: Selectivity interaction (Kinase panel (KiNativ target engagement assay in Jurkat cells)) EUB0001635a CDK7. The note with it: Selectivity number of off-targets 0.0, Selectivity number of targets 233.0, Source Knowledge https://www.sciencedirect.com/science/article/pii/S2451945619300674?via%3Dihub, at 1 µM. Type of assay: cell-based.
Sequence of Cyclin-dependent kinase 7 (P50613 whole entry): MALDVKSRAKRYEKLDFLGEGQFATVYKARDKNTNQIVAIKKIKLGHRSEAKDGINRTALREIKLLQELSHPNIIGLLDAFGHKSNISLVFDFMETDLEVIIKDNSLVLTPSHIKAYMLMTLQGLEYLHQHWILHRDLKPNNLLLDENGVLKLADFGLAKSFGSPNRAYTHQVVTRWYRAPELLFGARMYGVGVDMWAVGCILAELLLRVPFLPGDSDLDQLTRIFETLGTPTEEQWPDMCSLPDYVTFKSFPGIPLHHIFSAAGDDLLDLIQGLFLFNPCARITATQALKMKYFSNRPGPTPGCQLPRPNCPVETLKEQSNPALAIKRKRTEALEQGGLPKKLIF

Sequence of Protein kinase C delta type (Homo sapiens) (Q05655 whole entry, looked up): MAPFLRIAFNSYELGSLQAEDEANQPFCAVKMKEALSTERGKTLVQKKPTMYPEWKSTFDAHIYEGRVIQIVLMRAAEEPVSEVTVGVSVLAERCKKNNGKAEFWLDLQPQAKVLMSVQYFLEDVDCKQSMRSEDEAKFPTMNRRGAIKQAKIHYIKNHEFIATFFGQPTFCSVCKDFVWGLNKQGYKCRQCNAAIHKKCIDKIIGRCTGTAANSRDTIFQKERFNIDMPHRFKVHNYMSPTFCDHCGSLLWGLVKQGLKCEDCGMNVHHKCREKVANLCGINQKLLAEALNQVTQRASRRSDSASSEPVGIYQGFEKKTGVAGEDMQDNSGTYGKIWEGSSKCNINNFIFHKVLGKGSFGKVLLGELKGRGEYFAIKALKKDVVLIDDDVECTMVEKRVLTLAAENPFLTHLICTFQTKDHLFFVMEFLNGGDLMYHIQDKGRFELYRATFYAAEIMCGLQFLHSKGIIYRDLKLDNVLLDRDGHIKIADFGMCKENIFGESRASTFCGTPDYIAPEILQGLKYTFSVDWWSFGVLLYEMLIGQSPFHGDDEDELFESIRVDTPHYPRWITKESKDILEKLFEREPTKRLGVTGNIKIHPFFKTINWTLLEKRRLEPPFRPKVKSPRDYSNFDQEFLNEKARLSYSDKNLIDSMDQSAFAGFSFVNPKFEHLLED
Sequence of Fibroblast growth factor receptor 3 (P22607 23-806 limits assumed): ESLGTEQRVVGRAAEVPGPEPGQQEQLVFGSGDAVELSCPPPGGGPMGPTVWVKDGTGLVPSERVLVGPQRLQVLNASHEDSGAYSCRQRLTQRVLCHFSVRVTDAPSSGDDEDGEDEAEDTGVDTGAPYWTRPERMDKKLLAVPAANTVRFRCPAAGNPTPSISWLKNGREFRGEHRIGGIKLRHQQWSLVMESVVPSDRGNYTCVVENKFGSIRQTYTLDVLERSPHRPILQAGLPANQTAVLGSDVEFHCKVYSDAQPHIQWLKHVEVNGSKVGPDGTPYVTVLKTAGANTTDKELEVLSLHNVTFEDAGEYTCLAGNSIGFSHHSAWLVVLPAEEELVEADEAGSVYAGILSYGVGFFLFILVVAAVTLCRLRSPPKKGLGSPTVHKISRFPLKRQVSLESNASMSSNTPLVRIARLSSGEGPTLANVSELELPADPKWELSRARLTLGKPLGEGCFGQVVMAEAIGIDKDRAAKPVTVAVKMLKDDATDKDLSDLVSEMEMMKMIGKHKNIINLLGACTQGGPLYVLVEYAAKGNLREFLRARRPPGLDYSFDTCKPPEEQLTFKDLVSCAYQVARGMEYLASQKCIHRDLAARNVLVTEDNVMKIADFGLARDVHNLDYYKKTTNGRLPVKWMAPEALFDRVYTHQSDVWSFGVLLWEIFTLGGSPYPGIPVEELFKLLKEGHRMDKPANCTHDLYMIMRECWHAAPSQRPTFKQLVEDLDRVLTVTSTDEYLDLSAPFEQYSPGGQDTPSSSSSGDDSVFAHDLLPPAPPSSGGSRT
Sequence of Serine/threonine-protein kinase PAK 2 (Homo sapiens) (Q13177 whole entry): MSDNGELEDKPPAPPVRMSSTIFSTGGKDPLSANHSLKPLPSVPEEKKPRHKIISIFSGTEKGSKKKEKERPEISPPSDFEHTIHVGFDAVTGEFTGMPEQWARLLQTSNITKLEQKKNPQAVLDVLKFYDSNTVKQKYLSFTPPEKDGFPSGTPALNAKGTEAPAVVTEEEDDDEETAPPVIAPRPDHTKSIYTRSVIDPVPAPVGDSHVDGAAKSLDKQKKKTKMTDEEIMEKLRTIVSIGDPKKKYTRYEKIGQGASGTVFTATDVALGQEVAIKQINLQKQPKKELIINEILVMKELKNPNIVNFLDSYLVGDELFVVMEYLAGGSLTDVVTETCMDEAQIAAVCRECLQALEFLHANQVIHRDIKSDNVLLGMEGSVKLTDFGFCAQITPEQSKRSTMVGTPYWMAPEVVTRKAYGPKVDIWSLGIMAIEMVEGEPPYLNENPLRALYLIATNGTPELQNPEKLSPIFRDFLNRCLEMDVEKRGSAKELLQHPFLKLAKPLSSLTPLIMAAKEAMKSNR
Sequence of PAS domain-containing serine/threonine-protein kinase (Homo sapiens) (Q96RG2 whole entry, the tested form may be a part): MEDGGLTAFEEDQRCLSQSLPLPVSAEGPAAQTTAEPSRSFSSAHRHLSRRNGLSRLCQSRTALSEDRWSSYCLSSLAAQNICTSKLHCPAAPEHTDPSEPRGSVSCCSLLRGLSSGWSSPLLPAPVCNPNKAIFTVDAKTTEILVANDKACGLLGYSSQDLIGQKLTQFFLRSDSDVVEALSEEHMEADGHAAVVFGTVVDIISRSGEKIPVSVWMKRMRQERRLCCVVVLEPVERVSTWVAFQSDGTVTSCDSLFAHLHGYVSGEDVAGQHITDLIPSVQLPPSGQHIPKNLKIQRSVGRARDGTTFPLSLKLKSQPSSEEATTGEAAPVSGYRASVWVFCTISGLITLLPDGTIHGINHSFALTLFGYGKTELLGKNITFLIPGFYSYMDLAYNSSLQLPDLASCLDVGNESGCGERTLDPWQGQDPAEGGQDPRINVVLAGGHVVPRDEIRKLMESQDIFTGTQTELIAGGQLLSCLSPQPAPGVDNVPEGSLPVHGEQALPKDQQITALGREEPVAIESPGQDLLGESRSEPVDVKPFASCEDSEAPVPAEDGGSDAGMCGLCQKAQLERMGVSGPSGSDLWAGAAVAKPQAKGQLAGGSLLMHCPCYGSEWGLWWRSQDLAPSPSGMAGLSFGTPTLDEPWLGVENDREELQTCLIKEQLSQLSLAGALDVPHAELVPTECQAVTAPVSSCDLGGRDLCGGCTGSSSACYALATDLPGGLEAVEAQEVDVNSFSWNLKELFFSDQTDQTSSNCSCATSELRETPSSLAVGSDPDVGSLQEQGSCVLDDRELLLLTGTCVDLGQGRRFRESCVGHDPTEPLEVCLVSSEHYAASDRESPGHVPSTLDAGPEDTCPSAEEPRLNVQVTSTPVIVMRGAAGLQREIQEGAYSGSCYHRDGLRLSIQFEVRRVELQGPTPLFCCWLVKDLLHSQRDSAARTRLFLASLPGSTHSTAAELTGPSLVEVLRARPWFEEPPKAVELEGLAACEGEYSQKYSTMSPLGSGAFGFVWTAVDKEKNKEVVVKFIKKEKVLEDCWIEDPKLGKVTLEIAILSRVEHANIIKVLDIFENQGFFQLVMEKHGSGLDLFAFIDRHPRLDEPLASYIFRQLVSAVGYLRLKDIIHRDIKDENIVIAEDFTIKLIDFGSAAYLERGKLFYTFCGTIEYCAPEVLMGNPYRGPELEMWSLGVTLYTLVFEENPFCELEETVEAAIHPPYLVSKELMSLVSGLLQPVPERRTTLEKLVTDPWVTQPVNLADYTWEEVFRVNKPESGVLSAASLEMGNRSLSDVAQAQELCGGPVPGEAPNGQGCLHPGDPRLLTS
Sequence of Serine/threonine-protein kinase Nek6 (Homo sapiens) (Q9HC98 whole entry): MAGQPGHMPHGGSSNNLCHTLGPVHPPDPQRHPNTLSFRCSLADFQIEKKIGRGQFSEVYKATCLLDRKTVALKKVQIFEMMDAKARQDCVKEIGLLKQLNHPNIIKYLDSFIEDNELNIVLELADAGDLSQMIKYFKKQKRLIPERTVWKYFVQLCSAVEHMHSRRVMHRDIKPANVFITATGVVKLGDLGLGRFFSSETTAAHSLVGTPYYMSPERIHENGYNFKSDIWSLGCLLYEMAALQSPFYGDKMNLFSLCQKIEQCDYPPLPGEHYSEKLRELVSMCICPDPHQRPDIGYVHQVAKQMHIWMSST
Sequence of Death-associated protein kinase 3 (Homo sapiens) (O43293 whole entry, looked up): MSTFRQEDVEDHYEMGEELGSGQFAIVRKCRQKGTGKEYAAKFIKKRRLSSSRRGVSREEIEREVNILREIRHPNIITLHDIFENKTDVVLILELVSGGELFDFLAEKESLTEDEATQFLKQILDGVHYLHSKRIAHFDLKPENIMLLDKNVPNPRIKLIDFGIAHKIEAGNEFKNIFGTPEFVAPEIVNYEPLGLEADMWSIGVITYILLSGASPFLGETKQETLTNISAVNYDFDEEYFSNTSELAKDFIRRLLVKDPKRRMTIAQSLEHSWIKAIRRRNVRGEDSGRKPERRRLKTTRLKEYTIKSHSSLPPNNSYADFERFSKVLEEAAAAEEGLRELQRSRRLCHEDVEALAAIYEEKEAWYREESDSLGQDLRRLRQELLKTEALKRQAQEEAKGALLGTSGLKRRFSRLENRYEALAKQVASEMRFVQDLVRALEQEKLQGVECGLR
Sequence of Mitogen-activated protein kinase 14 (Q16539 whole entry): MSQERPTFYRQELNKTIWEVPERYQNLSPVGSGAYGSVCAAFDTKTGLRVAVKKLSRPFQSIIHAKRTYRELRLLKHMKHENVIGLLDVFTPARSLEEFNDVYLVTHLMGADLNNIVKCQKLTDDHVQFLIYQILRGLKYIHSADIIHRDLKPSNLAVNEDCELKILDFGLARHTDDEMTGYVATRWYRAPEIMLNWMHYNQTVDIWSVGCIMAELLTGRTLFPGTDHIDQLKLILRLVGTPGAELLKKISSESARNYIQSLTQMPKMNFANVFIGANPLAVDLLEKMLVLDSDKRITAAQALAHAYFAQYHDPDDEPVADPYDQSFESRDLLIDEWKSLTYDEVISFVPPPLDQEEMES

Consider `CCC(=O)N1CCN(c2ccc(-n3c(=O)ccc4cnc5ccc(-c6cnc7ccccc7c6)cc5c43)cc2C(F)(F)F)CC1`, for which the figures for the % of control in assay [1] and in assay [2] were 100% and 92%, respectively.

As to `CN(C)CCOc1ccc(-c2nc(-c3ccncc3)c(-c3ccc4c(c3)CC/C4=N\O)[nH]2)cc1`, the % of control in [3] is 89%.

With `Cc1cc(F)c(C(=O)Nc2cccc(-c3nncn3C(C)C)n2)cc1-n1cnc(C2CC2)c1`, the % of control in [4] came out at 99%.

`Cc1cnc(Nc2ccc(F)cc2Cl)nc1-c1c[nH]c(C(=O)N[C@H](CO)c2cccc(Cl)c2)c1` returned a % of inhibition in [5] of 19%.

With `O=C(NOC[C@H](O)CO)c1ccc(F)c(F)c1Nc1ccc(I)cc1F`, the % of control in assay [6] worked out at 78%.

With `Cn1cc(-n2cnc3c(NCc4nc5cc(Cl)c(Cl)cc5[nH]4)nc(N4CCOCC4)nc32)cn1`, the % of control in [7] is -2.35%.

For `CNC(=O)Nc1ccc(-c2nc(N3CC4CCC(C3)O4)c3cnn(C4CCC5(CC4)OCCO5)c3n2)cc1`, the % of control in [8] is 85%. Further, the % of inhibition in assay [9] was determined as 6%; in assay [10], 5%.

Turning to `CCc1cccc(CC)c1NC(=O)c1nn(C)c2c1CCc1cnc(Nc3ccc(C(=O)NC4CCN(C)CC4)cc3OC(F)(F)F)nc1-2`, the IC50 in assay [11] was greater than 10 µM.

`N#Cc1cccc(-c2c[nH]c3ncnc(N4CCOCC4)c23)c1`: the % of control in assay [12] worked out at 67%.

`CN1Cc2nccc(-c3cn(C)nc3-c3ccc(F)cc3)c2C1=O` gave a % of inhibition in assay [13] of 5%.

Regarding `C=CC(=O)Nc1ccc(C(=O)Nc2[nH]nc3c2CN(C(=O)N[C@H](CN(C)C)c2ccccc2)C3(C)C)cc1`, in assay [14], the % of engagement came to 95.5%.

What is called IC50 is the concentration that inhibits the measured activity by half. Lower therefore signals inhibition by little substance.
